Source: the METLIN SMRT retention time set (Domingo-Almenara et al. 2019)

Assay: gradient 5% acetonitrile 3 min, to 50% in 2 min, to 85% in 15 min, held 3 min, 100 µL/min
Conditions: column: Zorbax Extend-C18 2.1 x 50 mm; eluents: water / acetonitrile, 0.1% formic acid
In short: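 Using water and acetonitrile that each contained 0.1% formic acid, mixtures of ~100 pure standards were separated at 100 μL/min on a Zorbax Extend-C18 column (2.1 × 50 mm, 1.8 μm). The HPLC fed a quadrupole time-of-flight mass spectrometer working in positive and negative ionization mode, with dead and dwell volumes of 40 μL and 900 μL. Data were acquired over 3 months. Retention time was read from computationally picked adduct peaks after manual inspection of each.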

RP-LC retention time [s] | Compound
991 | O=C(Nc1cc(-c2cccc(F)c2)no1)C1CCCN(c2ncnc3c2nc2n3CCCCC2)C1 (stereo not given)
574 | CCN(CC)C(=O)c1ccc2c(c1)N(CC(=O)N1CCN(c3ccccn3)CC1)C(=O)CO2
888 | Cn1nc(C2CCN(S(=O)(=O)Cc3cccc(Cl)c3)CC2)n(C2CCCC2)c1=O
584 | O=[N+]([O-])c1c(NCCCO)cc(N2CCN(c3ccccn3)CC2)c2nonc12
691 | O=C(CSc1ccc(N2CCCC(C(=O)NC3CC3)C2)nn1)Nc1ccc(Br)cc1 (stereo not given)
839 | COc1ccc(OC)c(S(=O)(=O)NCc2c(-c3ccccc3)nc3sc(C)nn23)c1
1090 | COC(=O)c1ccc2c(=O)n(Cc3ccc(F)cc3)c(N3CCSC3)nc2c1
569 | CN1CCC(Cc2ccc(C(=O)O)cc2)CC1
800 | O=C(CC1(O)C(=O)Nc2c(Cl)cc(Cl)cc21)c1ccc([N+](=O)[O-])cc1 (stereo not given)
878 | CCn1cc(C(=O)NCCC(C)C)c2nn(-c3ccccc3)c(=O)c-2c1
760 | CC(=O)Nc1cccc(N2CC(C(=O)Nc3ccc(OC(F)(F)F)cc3)CC2=O)c1 (stereo not given)
608 | CCCNc1cc(N2CCCC(CCC(=O)NCC3CCCO3)C2)ncn1 (stereo not given)
830 | Cc1ccc(Cl)cc1N1CCN(c2cc(C(=O)O)c3cc(NC(=O)C(C)(C)C)ccc3n2)CC1
647 | Cc1ccn2cc(-c3ccc(NC(=O)c4ccc(Br)o4)cc3)nc2n1
712 | CCc1ccc(NC(=O)Nc2ccc3nnc(C)n3c2)cc1
1220 | Cc1ccc(-c2nc(NC(=O)c3cc4ccccc4o3)sc2C)cc1
610 | CCCc1nc2ccc(CCC(=O)Nc3ccc(OC)c(OC)c3)cc2[nH]1
695 | Cn1cccc1C(=O)N1CC[C@H](n2c(=O)n(C)c3cccnc32)C1
1120 | O=C(Cn1nc(N2CCCCCC2)c2ccccc2c1=O)Nc1ccccc1F
890 | O=C(NC1CCCC1)c1ccc2ccnc(N3CCN(c4ccc(Cl)cc4)CC3)c2c1
818 | CCCn1c(=O)sc2cc(S(=O)(=O)N3CCC(C(=O)NC(C)C)CC3)ccc21
781 | Cc1ccc(-n2nc(N3CCN(C(=O)Nc4ccc(F)cc4F)CC3)ccc2=O)cc1

RP-LC retention time [s] | Compound
820 | CCOc1ccc(C(=O)NC2CCN(c3cc(-c4ccc(Cl)cc4)[nH]n3)C2)cc1 (stereo not given)
645 | CC(C)CN1CCN(Cc2nc(-c3ccc(N4CCCC(C)C4)nc3)no2)CC1 (stereo not given)
853 | COc1cnc(SC)nc1Nc1ccc(C#N)cc1
707 | CN1CCCn2cc(S(=O)(=O)NCc3ccc(F)cc3Cl)cc2C1=O
611 | CCCNC(=O)Cc1cn(CC)c2ncccc12
1240 | COc1ccccc1-c1nc(Cn2nnc(-c3nc(-c4ccc(C(F)(F)F)cc4)no3)c2C)c(C)o1
1140 | Cc1ccc(Cl)c(NC(=O)c2nc(C)oc2C)c1
819 | CCn1c(C(=O)N2CCN(Cc3ccccc3)CC2)cc2c(-c3cccs3)nn(-c3ccccc3)c21
802 | C[C@@H]1C(=O)O[C@H]2[C@H](O)[C@@]34C5C[C@@H](C(C)(C)C)[C@]36[C@H](OC(=O)[C@@H]6O)OC4(C(=O)O5)[C@@]12O (stereo not given in full)
597 | CSCc1noc(Cn2ccc3ccn(CCN(C)C)c3c2=O)n1
822 | O=C(c1ccco1)N1CCC(c2nc(-c3ccccc3)no2)C1 (stereo not given)
843 | O=C(NOCCc1ccccc1)Nc1ccc([N+](=O)[O-])cc1
888 | COc1ccc2[nH]c3c(c2c1)CCN(C(=O)CC(C)C)C31C(=O)N(C)c2ccccc21 (stereo not given)
622 | CCc1nnc2nc(N3CCN(C(=O)C(C)Oc4ccccc4)CC3)cc(C)n12 (stereo not given)
722 | COc1cccc(CNC(=O)c2c(C(F)(F)F)nn(C)c2C)c1
998 | CCc1ccc(NC(=O)C2CCN(S(C)(=O)=O)c3cc(C)ccc3O2)cc1 (stereo not given)
921 | O=S(=O)(c1ccc2nc(N3CCN(c4ccccc4)CC3)ccc2c1)N1CCCC1
662 | CCOC(=O)c1ccc(NC(=O)Cn2cnc3cc4c(cc32)OCCO4)cc1
719 | CCOc1ccccc1C(=O)Nc1c(-c2ccc(F)cc2)nc2ccccn12
847 | COC(=O)c1cccc(NC(=O)NC2CCN(c3ccc(C)c(C)c3)C2=O)c1 (stereo not given)
585 | CCOC(=O)c1cn[nH]c1S(=O)(=O)N1CCC(C(N)=O)CC1
1050 | O=C(NCc1ccccc1F)C1CCCN(c2nccnc2Sc2ccccc2)C1 (stereo not given)

RP-LC retention time [s] | Compound
818 | CCc1cccc(C)c1NC(=O)C1CCN(S(=O)(=O)c2ccc3c(c2)NC(=O)CO3)CC1
728 | Cc1cc(C)cc(NC(=O)N2CCC(c3cc(N)on3)CC2)c1
675 | Cc1nc(CNC(=O)C2CCN(C(=O)Nc3ccc(C)c(C)c3)CC2)cs1
824 | CC(=O)c1ccc(N2CCN(C(=O)Cn3cccc3-c3nnc(C4CCC4)o3)CC2)cc1
645 | O=C(NCc1ccncc1)C1CCN(C(=O)c2ncn3c2COC(c2ccc(Cl)cc2)C3)CC1 (stereo not given)
1070 | CCc1ccc(/C=C2/SC(=S)NC2=O)cc1
789 | Cc1cc(S(=O)(=O)N2CCOC23CCN(C(=O)C2CC2)CC3)ccc1F
890 | Cc1cc(C)cc(N2CCC(NC(=O)Nc3ccccc3C)C2=O)c1 (stereo not given)
763 | Cc1ccc(-c2ccc(N3CCCC(C(=O)NCc4ccc5c(c4)OCO5)C3)nn2)cc1C (stereo not given)
607 | CN(Cc1nc2cc(C(=O)N3CCCC3)ccc2n1C)C(=O)Nc1ccc(F)cc1F
757 | CC(C)S(=O)(=O)N1CCOc2ccc(NC(=O)C3CC3)cc2C1
638 | CN1CCN(Cc2nc(-c3ccc(N(C)Cc4ccccc4)nc3)no2)CC1
740 | Cc1nc(C2CCOCC2)n(C2CCN(S(=O)(=O)c3cc(F)cc(F)c3)C2)n1 (stereo not given)
597 | CCC(CC)C(=O)N1CCN(c2nc(CN3CCOCC3)cs2)CC1
868 | COc1ccc(-c2nnc(COc3ccc(NC(=O)c4ccnc(Cl)c4)cc3)o2)cc1
697 | O=C(CCc1c(-c2ccc(F)cc2)nc2ccccn12)Nc1cc(F)ccc1F
890 | O=S(=O)(c1ccc2nc(N3CCN(c4ccc(F)cc4)CC3)ccc2c1)N1CCOCC1
882 | CC1=C(C(=O)OCCCc2ccccc2)C(c2cccs2)NC(=O)N1 (stereo not given)
829 | O=C(c1ccc(-c2cncnc2)nc1)N1CCN(c2ccccc2Cl)CC1
770 | COc1ccc(-c2cc(=O)c3c(O)cc(O)cc3o2)cc1OC
1060 | CCNc1nc(-c2ccc(C3CCCCC3)cc2)cs1
953 | Cc1ccnc(Nc2nc(-c3cc(C)c(C)cc3C)cs2)c1

RP-LC retention time [s] | Compound
735 | CCC(=O)N1CCCn2nc(-c3cccc(F)c3)cc2C1
611 | Cc1ccc(NC(=O)c2ccc(=O)n(CCN3CCOCC3)c2)cc1
668 | Cc1cc(NC(=O)Cn2cnc3c(oc4ccccc43)c2=O)no1
829 | Cc1cc(C(=O)NCC2CCN(C(=O)Oc3ccccc3)CC2)c(C)o1
791 | CC(=O)Nc1ccc(C2(C(=O)NCc3ccccc3C)CCC2)cc1
631 | CC(C)C(=O)Nc1ccc(C(=O)NCCNS(=O)(=O)N(C)C)cc1
745 | NC(=O)c1ccc(I)c([N+](=O)[O-])c1
803 | COc1ccc2[nH]cc(CCNC(=O)CCc3nnc(C(=O)Nc4ccccc4)s3)c2c1
629 | C=CCNS(=O)(=O)CCNC(=O)c1ccccc1
881 | COc1ccc(NC(=O)c2sc(-c3cn(C)c4ncccc34)nc2C)c(C)c1
709 | c1ccc(CNc2c(-c3ccccc3)nc3ncccn23)cc1
562 | CCN1CCN(CCNC(=O)C2Cn3cccc3C(=O)N2CC(C)C)CC1 (stereo not given)
788 | CCN(C(=O)C1CCN(S(=O)(=O)c2ccc3c(c2)NC(=O)CO3)CC1)c1ccc(OC)cc1
651 | CC(=O)c1cccc(S(=O)(=O)Nc2ccc(CC(=O)N(C)C)cc2)c1
1000 | CC(=O)N(CCC1(C(C)C)CCOC(C)(C)C1)Cc1ccccc1 (stereo not given)
683 | COc1ccc(-c2onc(C)c2C)cc1S(=O)(=O)N1CCN(c2ccccn2)CC1
1000 | Cc1cc(C)n2c(Nc3ccc(C(C)C)cc3)c(-c3cccc(Br)c3)nc2n1
769 | O=C(c1c(F)cccc1F)N(CC1CCOC1)C1CC1 (stereo not given)
872 | CCc1cccc(NC(=O)C2CCN(S(=O)(=O)c3cc(C(=O)N4CCCC4)n(C)c3)CC2)c1
666 | CCCNC(=O)c1ccc(-c2ccc(N3CCSCC3)nc2)cc1
675 | O=C(Cn1c(-c2ccc(F)cc2)nc2ccccc21)N1CCCCC1
707 | CCc1cccc(NC(=O)C2CC(=O)N(c3ccc4c(c3)CCN4C(C)=O)C2)c1 (stereo not given)

Compound | RP-LC retention time [s]
Brc1ccc2nc(N3CCNCC3)sc2c1 | 557
COCCN1C(=O)CS(=O)(=O)C12CCN(C(=O)C1(c3ccccc3)CC1)CC2 | 685
